# Test: Solubility of cyclooctasulfur, cyclododecasulfur and crystalline polymeric sulfur in carbon disulfide, chlorobenzene and para-xylene (supernatant sulfur content by Uniquant)
# Type: physicochemical
# Method: Samples were also analyzed using X-ray fluorescence and the UniQuant software package. UniQuant (UQ) is an x-ray fluorescence (XRF) analysis tool that affords standardless XRF analysis of samples. Samples can then be semi-quantitatively analyzed for up to 72 elements beginning with row three in the periodic table (i.e. Na to higher Z). The data are mathematically corrected for matrix differences between calibration standards and samples as well as absorption and enhancement effects; i.e. inter-element effects. Some factors that can affect the quality of results include granularity in the sample (leading to shadow effects), mineralogical effects (due to sample inhomogeneity), insufficient sample size, and lack of knowledge of the sample matrix. In cases where a sample was amenable to both, the XRF UQ analysis and the ICP-OES (i.e. quantitative) analysis generally agree within +/−10%. Samples were analyzed for Zn, Br, Cl, and S content by UQ.
# Fifty grams of p-xylene was added to each of three identical 100-milliliter jacketed glass vessels fitted with a circulating heating bath, cooling water condenser, magnetic stir bar and stir plate, and nitrogen purge. All vessels were heated to the desired temperature, and cyclooctasulfur, cyclododecasulfur (prepared as in Example 2), and unoiled commercial crystalline polymeric sulfur (Crystex™) was added in sufficient quantities to each of the glass vessels to allow undissolved solids to remain after dissolution and equilibration of the mixture. The equilibration period typically lasted 2 to 8 hours, during which the contents of the vessel were maintained at the desired temperature and stirred continuously. Upon equilibration, supernatant liquid was withdrawn from the vessels via a heated fritted glass pipette (heated to the same temperature as the solution). The supernatants were analyzed by Uniquant to determine sulfur content, indicating the solubility of the sulfur species at the vessel temperature. Similar experiments were conducted for carbon disulfide and chlorobenzene for each of the three solutes.
"Solubility in weight % of solute in solvent (solvent CS2, 22 °C)","Solubility in weight % of solute in solvent (solvent CS2, 45 °C)","Solubility in weight % of solute in solvent (solvent chlorobenzene, 45 °C)","Solubility in weight % of solute in solvent (solvent chlorobenzene, 115 °C)","Solubility in weight % of solute in solvent (solvent p-xylene, 45 °C)","Solubility in weight % of solute in solvent (solvent p-xylene, 115 °C)","Solubility relative to cyclododecasulfur (in p-xylene, chlorobenzene and CS2, depending on temperature)","Solubility in weight % of solute in solvent (solvent chlorobenzene, 22 °C)","Solubility in weight % of solute in solvent (solvent p-xylene, 22 °C)",Compound,"Solubility relative to polymeric sulfur (in p-xylene, chlorobenzene and CS2)"
0.2 wt %,0.5 wt %,0.015 wt %,0.44 wt %,<0.05 wt %,0.4 wt %,–,–,–,"S1SSSSSSSSSSS1 [Cyclododecasulfur, cyclododecasulfur]",at least an order of magnitude more soluble
32 wt %,48 wt %,6.2 wt %,21.7 wt %,5.6 wt %,18.7 wt %,30 to 200 times,2.4 wt %,2.3 wt %,"S1SSSSSSS1 [Cyclooctasulfur, cyclooctasulfur]",–

# Reference: patent US10000380B2, “Method for the manufacture of polymeric sulfur” (EASTMAN CHEMICAL COMPANY, priority 2016, dated 2018)
